Measured values published in the supplement of paper PMC10307832.

What was measured:
Test in all cases: relative viability (nuclei count vs DMSO), 5 days (fraction); higher = more cells survive
Pictilisib + OSI-027 = compound: CS(=O)(=O)N1CCN(Cc2cc3nc(-c4cccc5[nH]ncc45)nc(N4CCOCC4)c3s2)CC1 [Pictilisib] + COc1cccc2cc(-c3nc([C@H]4CC[C@H](C(=O)O)CC4)n4ncnc(N)c34)[nH]c12 [OSI-027] (partner 0.5 µM)
Method in brief: (§1)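 Relative viability divides the nuclei count in treated wells by that in vehicle wells. Lung cancer cell lines were seeded in 1536-well plates, dosed by pin tool the next day, and fixed and stained after 5 days in one step with final 0.05% Triton X-100, 1% formaldehyde and 1 ug/ml Hoechst. Dosing was a single drug or a fixed anchor-drug dose plus five library-drug doses (not always all listed) in √10 steps, and values are medians of duplicate plates imaged at 4×.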

Pictilisib + Tozasertib = compound: CS(=O)(=O)N1CCN(Cc2cc3nc(-c4cccc5[nH]ncc45)nc(N4CCOCC4)c3s2)CC1 [Pictilisib] + Cc1cc(Nc2cc(N3CCN(C)CC3)nc(Sc3ccc(NC(=O)C4CC4)cc3)n2)n[nH]1 [Tozasertib] (partner 0.1 µM)
Method in brief: as §1

MK-2206 + Luminespib = compound: NC1(c2ccc(-c3nc4ccn5c(=O)[nH]nc5c4cc3-c3ccccc3)cc2)CCC1 [MK-2206] + CCNC(=O)c1noc(-c2cc(C(C)C)c(O)cc2O)c1-c1ccc(CN2CCOCC2)cc1 [Luminespib] (partner 0.01 µM)
Method in brief: as §1

MK-2206 + Crizotinib = compound: NC1(c2ccc(-c3nc4ccn5c(=O)[nH]nc5c4cc3-c3ccccc3)cc2)CCC1 [MK-2206] + C[C@@H](Oc1cc(-c2cnn(C3CCNCC3)c2)cnc1N)c1c(Cl)ccc(F)c1Cl [Crizotinib] (partner 1 µM)
Method in brief: as §1

MK-2206 + Vorinostat = compound: NC1(c2ccc(-c3nc4ccn5c(=O)[nH]nc5c4cc3-c3ccccc3)cc2)CCC1 [MK-2206] + O=C(CCCCCCC(=O)Nc1ccccc1)NO [Vorinostat] (partner 1 µM)
Method in brief: as §1

Cell Line	relative viability (Pictilisib + OSI-027; first compound 0.02 µM)	relative viability (Pictilisib + OSI-027; first compound 0.06325 µM)	relative viability (Pictilisib + OSI-027; first compound 0.6325 µM)	relative viability (Pictilisib + OSI-027; first compound 2 µM)	relative viability (Pictilisib + Tozasertib; first compound 0.02 µM)	relative viability (Pictilisib + Tozasertib; first compound 0.06325 µM)	relative viability (Pictilisib + Tozasertib; first compound 0.6325 µM)	relative viability (Pictilisib + Tozasertib; first compound 2 µM)	relative viability (MK-2206 + Luminespib; first compound 0.01 µM)	relative viability (MK-2206 + Luminespib; first compound 0.03162 µM)	relative viability (MK-2206 + Luminespib; first compound 0.3162 µM)	relative viability (MK-2206 + Luminespib; first compound 1 µM)	relative viability (MK-2206 + Crizotinib; first compound 0.01 µM)	relative viability (MK-2206 + Crizotinib; first compound 0.03162 µM)	relative viability (MK-2206 + Crizotinib; first compound 0.3162 µM)	relative viability (MK-2206 + Crizotinib; first compound 1 µM)	relative viability (MK-2206 + Vorinostat; first compound 0.01 µM)	relative viability (MK-2206 + Vorinostat; first compound 0.03162 µM)	relative viability (MK-2206 + Vorinostat; first compound 0.3162 µM)	relative viability (MK-2206 + Vorinostat; first compound 1 µM)
LK-2	0.183	0.208	0.15	0.142	0.209	0.173	0.154	0.158	0.173	0.199	0.212	0.17	0.211	0.236	0.229	0.211	0.26	0.287	0.334	0.221
NCI-H522	0.635	0.719	0.64	0.57	0.52	0.542	0.444	0.397	1.28	1.31	1.17	1.19	–	–	–	–	1.07	1.02	0.828	0.836
NCI-H1299	–	–	–	–	–	–	–	–	–	–	–	–	0.957	0.963	1.06	0.94	–	–	–	–
NCI-H1395	0.796	0.658	0.568	0.392	0.715	0.722	0.773	0.473	0.77	0.606	0.746	0.651	–	–	–	–	0.713	0.667	0.574	0.576
NCI-H1563	0.737	0.713	0.554	0.57	–	–	–	–	0.528	0.518	0.577	0.477	0.771	0.828	0.75	0.604	–	–	–	–
NCI-H1623	0.431	0.414	0.342	0.244	0.378	0.364	0.381	0.272	0.499	0.526	0.492	0.458	–	–	–	–	–	–	–	–
NCI-H1648	0.256	0.248	0.275	0.266	0.377	0.36	0.455	0.246	–	–	–	–	–	–	–	–	0.475	0.422	0.445	0.432
NCI-H1703	–	–	–	–	–	–	–	–	–	–	–	–	0.809	0.658	0.302	0.511	–	–	–	–
NCI-H1792	0.752	0.617	0.335	0.173	–	–	–	–	0.467	0.455	0.473	0.394	0.968	1	0.999	0.944	–	–	–	–
NCI-H1793	0.255	0.236	0.185	0.149	0.288	0.29	0.189	0.097	0.186	0.178	0.164	0.174	–	–	–	–	0.818	0.773	0.636	0.478
NCI-H2342	0.541	0.605	0.551	0.417	0.46	0.474	0.409	0.276	0.751	0.655	0.77	0.677	–	–	–	–	0.841	0.802	0.821	0.733
SW 900	0.655	0.715	0.501	0.289	0.651	0.63	0.562	0.334	0.167	0.197	0.175	0.17	–	–	–	–	0.527	–	0.554	0.299
